{"source": "patent US20110027296A1", "about": "“ANTIBODIES FOR TREATING CANCER” (UNIVERSIDAD DE BARCELONA, priority 2008, published 2011)", "key": {"[1]": {"tested_on": "cyclin D1, cdk4, cdk2, p21 and p27", "assay": "Cell cycle protein expression by Western blot", "type": "cell-based", "conditions": "100 nM SP or antibody 1/100 dilution; indicator of proliferative rate", "experimental": "FIG. 1A: For the study of the effect of SP and its inhibition on cell cycle protein expression, cells were treated with 100 nM of SP or antibody anti-SP at 1/100 dilution for 48 hours. The different pattern of protein expression was determined by Western blot. C (control), SP, αSP (anti-SP antibody). FIG. 1B: For the time-course studies cells were treated at the same concentration of antibody for the times indicated. FIG. 1C: The ratio between p27/cyclin D1 (y-axis) was determined as an indicator of the proliferative rate of the cells.\nFor the analysis of substance P treatment on HER2 and EGFR activation, cells were seeded on dishes and growth until 80% confluence. […]\n(§1) For protein extraction cells were lysated in ice-cold radioimmunoprecipitation assay buffer (Tris-HCl 50 mM, pH 7.4; NP-40 1%; Na-deoxycholate, 0.25%, NaCl 150 mM; EDTA 1 mM; PMSF 1 mM; proteinase inhibitors; Na3VO4 1 mM and NaF 1 mM) and sonicated for 10 seconds. After centrifugation (13000 g 5 min) supernatants were quantified for protein content. […] Chemiluminiscence of the bands was detected after ECL treatment (Amersham, Piscataway, N.J.) of membranes and subsequent analysis using a Fujifilm LAS3000 imaging system. Different intensities of bands were quantified using Image Gauge software, and correct Mr was compared with pre-stained protein standards (BioRad)."}, "HER2": {"tested_on": "HER2", "assay": "HER2 phosphorylation and expression by Western blot in breast cancer cell lines", "type": "cell-based", "conditions": "SP 100 nM, FIG. 5", "experimental": "In FIG. 5A, to analyze the effects of SP on HER2 activation different BC cell lines were treated with SP at 100 nM for the indicated times (in min). […] In FIG. 5B, for the dose-response study MDA-MB-453 cell line was treated at different times (minutes, x-axis) with 100, 200 or 500 nM of SP, and then activation of HER2 was determined. The results are expressed as a percentage of control (y-axis), and every experiment was done in duplicate.\nIn FIG. 6A cells were treated with 500 nM of SP or anti-SP antibody at 1/100 dilution for 48 hours, and the levels of the different proteins determined by Western blot. C means control. […] In FIG. 6B for the time-course studies, SKBR3 and BT474 cell lines were treated with anti-SP antibody for 24, 48 and 72 hours and protein analyzed by Western blot. […]\nFor protein extraction cells were lysated in ice-cold radioimmunoprecipitation assay buffer (Tris-HCl 50 mM, pH 7.4; NP-40 1%; Na-deoxycholate, 0.25%, NaCl 150 mM; EDTA 1 mM; PMSF 1 mM; proteinase inhibitors; Na3VO4 1 mM and NaF 1 mM) and sonicated for 10 seconds. After centrifugation (13000 g 5 min) supernatants were quantified for protein content. […] Chemiluminiscence of the bands was detected after ECL treatment (Amersham, Piscataway, N.J.) of membranes and subsequent analysis using a Fujifilm LAS3000 imaging system. […]"}, "EGFR": {"tested_on": "EGFR", "assay": "EGFR phosphorylation by Western blot in MDA-MB-468 cells", "type": "cell-based", "conditions": "MDA-MB-468, 100 nM SP, time course", "experimental": "FIG. 8A: to analyze the effects of SP on EGFR activation MDA-MB-468 cell line was treated with SP at 100 nM for the indicated times (in min). The levels of phospho-EGFR and phospho-Erk were determined by Western blot analysis. FIG. 8B: The effects of the inhibition of SP in the activation of EGFR were determined as for HER2. C means control.\nFor the analysis of substance P treatment on HER2 and EGFR activation, cells were seeded on dishes and growth until 80% confluence. After 24 hours of fetal deprivation, cells were treated at the indicated times with 100 nM SP. Cells were wash two times with cold PBS and rapidly frozen in a −80° C. freezer until protein extraction. […]\nas §1"}, "MDA-MB-231": {"tested_on": "MDA-MB-231", "conditions": "cytostatic and not cytotoxic effect; cited from earlier work"}, "BCC": {"tested_on": "BCC", "conditions": "1 nM antagonist; cited from earlier work"}}, "note": "Bridge positions count the residues as written; N and C are the ends. Square brackets hold non-standard residues; d marks the D form. Peptide text beside a SMILES is read from it. * marks the point of attachment. NH(β-GlcNAc) = CC(=O)N[C@@H]1[C@@H](O)[C@H](O)[C@@H](CO)O[C@H]1N*; Dap = NC[C@H](N)C(=O)O"}
{"molecule": "Arg-Pro-Lys-Pro-Gln-Gln-Phe-Phe-Gly-Leu-Met [substance P]", "values": [{"measurement": "p27/cyclin D1 ratio", "setting": "[1]", "result": "caused a decrease in p27/cyclin D1 ratio"}, {"measurement": "transactivation of HER2", "setting": "HER2", "result": "induces transactivation of HER2"}, {"measurement": "activation of EGFR (phospho-EGFR)", "setting": "EGFR", "result": "Activation of EGFR was observed at 2 min, with a second activation point at minute 6"}]}
{"molecule": "Cc1ccc(CC(=O)N(C)[C@H](Cc2ccc3ccccc3c2)C(=O)N[C@@H]2CCCC[C@@H]2NC(=O)c2c[nH]c3ccccc23)cc1", "note": "[MEN 11467]", "values": [{"measurement": "proliferation of tumor cell line MDA-MB-231", "setting": "MDA-MB-231", "result": "induced an inhibition of proliferation"}]}
{"molecule": "CC(=O)N[C@@H]1[C@@H](O)[C@H](O)[C@@H](CO)O[C@H]1NC(=O)C[C@@H]1NC(=O)[C@H](CC(C)C)NC(=O)[C@@H]2CNC(=O)C[C@H](NC1=O)C(=O)N[C@@H](Cc1c[nH]c3ccccc13)C(=O)N[C@@H](Cc1ccccc1)C(=O)N2", "note": "[MEN 11420] (cyclo(D(NH(β-GlcNAc))DWF[Dap]L); lactam 2-5)", "values": [{"measurement": "proliferation of tumor cell line MDA-MB-231", "setting": "MDA-MB-231", "result": "induced an inhibition of proliferation"}]}
{"molecule": "CC(=O)NC1(c2ccccc2)CCN(CC[C@H](CN(C)C(=O)c2ccccc2)c2ccc(Cl)c(Cl)c2)CC1", "note": "[SR 48968]", "values": [{"measurement": "reduction of BCC colony formation", "setting": "BCC", "result": 60, "unit": "%"}]}
